Columns and labels:
[1] = addition of viscogens such as glycerol or Ficoll; cited from earlier work
[2] = High throughput dissolution screening of Aspirin; assay type: physicochemical; details: 10 mg powdered Aspirin in 10 ml deionized water, shaker, UV detector, 37 second sampling frequency for 30 minutes, FIG. 7
Description: A 10 mg of powdered Aspirin standard from Aldrich was weighted into a 20 ml scintillation vial and put on a shaker at a robot platform. The shaker was then turned on and an automated dispensing unit with a 10 ml syringe dispensed 10 ml of deionized water into the 20 ml scintillation vial containing the 10 mg of Aspirin thereby initiating dissolution of the 10 mg of Aspirin into the 10 ml of deionized water to form, over time, a solution having an increasing concentration of aspirin.
Thereafter, an automated sampling unit aspirated approximately 300 μL of the solution (the sample itself never enters the syringe) through an in-line filter allowing a sampled aliquot of the filtered solution to enter a switching valve and fill a 20 μL sample loop connected to the ports of the switching valve. Once the 20 μL sample loop was filled with a portion of the aliquot, the switching valve was switched to a second position by automation, causing the sub-aliquot contained in the 20 μL sample loop to be discharged into an analytical unit. The analytical unit comprised a syringe pump and an UV detector, for determining concentration. At this point, the automated sampling unit returned the remainder portion of the filtered aliquot back through the filter and back into the solution contained in the scintillation vial. […]

| Molecule | photo stability [1] | time to reach maximum dissolution [2] |
| --- | --- | --- |
| Vitamin-B12 | increase in photo stability |  |
| CC(=O)Oc1ccccc1C(=O)O [Aspirin] |  | less than 10 minutes |
